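Five concentrations, 48 hours, 96-well plates. GI50 marks 50% less growth. TGI: total growth inhibition.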
How the values were obtained:
Assay in all cases: NCI anticancer screen, dose series, 48 h
KM12 colon = test system: KM12 colon
SF-295 CNS = test system: SF-295 CNS
SK-MEL-2 melanoma = test system: SK-MEL-2 melanoma
SNB-19 CNS = test system: SNB-19 CNS
SK-MEL-28 melanoma = test system: SK-MEL-28 melanoma
HCC-2998 colon = test system: HCC-2998 colon
SF-268 CNS = test system: SF-268 CNS
PC-3 prostate = test system: PC-3 prostate
IGROV1 ovarian = test system: IGROV1 ovarian
ACHN renal = test system: ACHN renal
MDA-MB-435 = test system: MDA-MB-435
SR leukemia = test system: SR leukemia
EKVX NSCLC = test system: EKVX NSCLC
SW-620 colon = test system: SW-620 colon
HT29 colon = test system: HT29 colon
HL-60(TB) leukemia = test system: HL-60(TB) leukemia
DU-145 prostate = test system: DU-145 prostate
OVCAR-3 ovarian = test system: OVCAR-3 ovarian
BT-549 breast = test system: BT-549 breast
SNB-75 CNS = test system: SNB-75 CNS
COLO 205 colon = test system: COLO 205 colon
A498 renal = test system: A498 renal
SK-MEL-5 melanoma = test system: SK-MEL-5 melanoma
TK-10 renal = test system: TK-10 renal
SN12C renal = test system: SN12C renal
UACC-257 melanoma = test system: UACC-257 melanoma
SF-539 CNS = test system: SF-539 CNS
HCT-15 colon = test system: HCT-15 colon
MALME-3M melanoma = test system: MALME-3M melanoma
CAKI-1 renal = test system: CAKI-1 renal
MOLT-4 leukemia = test system: MOLT-4 leukemia
RPMI-8226 leukemia = test system: RPMI-8226 leukemia
LOX IMVI melanoma = test system: LOX IMVI melanoma
M14 melanoma = test system: M14 melanoma
RXF 393 renal = test system: RXF 393 renal
CCRF-CEM leukemia = test system: CCRF-CEM leukemia
NCI-H522 lung = test system: NCI-H522 lung
UO-31 renal = test system: UO-31 renal
NCI/ADR-RES ovarian = test system: NCI/ADR-RES ovarian
OVCAR-5 ovarian = test system: OVCAR-5 ovarian
SK-OV-3 ovarian = test system: SK-OV-3 ovarian
HCT-116 colon = test system: HCT-116 colon
T-47D breast = test system: T-47D breast
HOP-62 NSCLC = test system: HOP-62 NSCLC
NCI-H226 lung = test system: NCI-H226 lung
MDA-MB-231 breast = test system: MDA-MB-231 breast
HS 578T breast = test system: HS 578T breast
NCI-H23 lung = test system: NCI-H23 lung

Structure (SMILES): COc1ccc2cc(-c3ccc(-c4ccc(C(=N)N)s4)s3)ccc2c1
- GI50 (KM12 colon): 2.06 µM
- TGI (KM12 colon): 4.68 µM
- GI50 (SF-295 CNS): 5.07 µM
- TGI (SF-295 CNS): 17.6 µM
- GI50 (SK-MEL-2 melanoma): 2.66 µM
- TGI (SK-MEL-2 melanoma): 6.7 µM
- GI50 (SNB-19 CNS): 2.13 µM
- TGI (SNB-19 CNS): > 100 µM
- GI50 (SK-MEL-28 melanoma): 2.5 µM
- TGI (SK-MEL-28 melanoma): 6.04 µM
- GI50 (HCC-2998 colon): 3.35 µM
- TGI (HCC-2998 colon): 11.7 µM
- GI50 (SF-268 CNS): 2.1 µM
- TGI (SF-268 CNS): 4.97 µM
- GI50 (PC-3 prostate): 2.13 µM
- TGI (PC-3 prostate): 4.33 µM
- GI50 (IGROV1 ovarian): 2.27 µM
- TGI (IGROV1 ovarian): 5.45 µM
- GI50 (ACHN renal): 3.06 µM
- TGI (ACHN renal): 8.76 µM
- GI50 (MDA-MB-435): 2.01 µM
- TGI (MDA-MB-435): 4.48 µM
- GI50 (SR leukemia): 0.851 µM
- TGI (SR leukemia): 3.38 µM
- GI50 (EKVX NSCLC): 2.14 µM
- TGI (EKVX NSCLC): 6.1 µM
- GI50 (SW-620 colon): 1.91 µM
- TGI (SW-620 colon): 3.81 µM
- GI50 (HT29 colon): 1.72 µM
- TGI (HT29 colon): 3.27 µM
- GI50 (HL-60(TB) leukemia): 1.84 µM
- TGI (HL-60(TB) leukemia): 5.34 µM
- GI50 (DU-145 prostate): 1.7 µM
- TGI (DU-145 prostate): 3.32 µM
- GI50 (OVCAR-3 ovarian): 2.42 µM
- TGI (OVCAR-3 ovarian): 6.07 µM
- GI50 (BT-549 breast): 17.6 µM
- TGI (BT-549 breast): 38.5 µM
- GI50 (SNB-75 CNS): 10.4 µM
- TGI (SNB-75 CNS): 26.6 µM
- GI50 (COLO 205 colon): 2.04 µM
- TGI (COLO 205 colon): 4.24 µM
- GI50 (A498 renal): 14.3 µM
- TGI (A498 renal): 42.3 µM
- GI50 (SK-MEL-5 melanoma): 16.1 µM
- TGI (SK-MEL-5 melanoma): 30.2 µM
- GI50 (TK-10 renal): 14.2 µM
- TGI (TK-10 renal): 29.2 µM
- GI50 (SN12C renal): 2.12 µM
- TGI (SN12C renal): 4.65 µM
- GI50 (UACC-257 melanoma): 19.6 µM
- TGI (UACC-257 melanoma): 35.4 µM
- GI50 (SF-539 CNS): 3.91 µM
- TGI (SF-539 CNS): 19.2 µM
- GI50 (HCT-15 colon): 1.89 µM
- TGI (HCT-15 colon): 3.7 µM
- GI50 (MALME-3M melanoma): 3.32 µM
- TGI (MALME-3M melanoma): 11.5 µM
- GI50 (CAKI-1 renal): 8.29 µM
- TGI (CAKI-1 renal): 21.9 µM
- GI50 (MOLT-4 leukemia): 2.17 µM
- TGI (MOLT-4 leukemia): 6.7 µM
- GI50 (RPMI-8226 leukemia): 2.16 µM
- TGI (RPMI-8226 leukemia): 5.06 µM
- GI50 (LOX IMVI melanoma): 1.95 µM
- TGI (LOX IMVI melanoma): 3.82 µM
- GI50 (M14 melanoma): 4 µM
- TGI (M14 melanoma): 15.7 µM
- GI50 (RXF 393 renal): 7.22 µM
- TGI (RXF 393 renal): 23.2 µM
- GI50 (CCRF-CEM leukemia): 1.51 µM
- TGI (CCRF-CEM leukemia): 4.21 µM
- GI50 (NCI-H522 lung): 1.92 µM
- TGI (NCI-H522 lung): 4.57 µM
- GI50 (UO-31 renal): 2.88 µM
- TGI (UO-31 renal): 9.72 µM
- GI50 (NCI/ADR-RES ovarian): 2.29 µM
- TGI (NCI/ADR-RES ovarian): 4.87 µM
- GI50 (OVCAR-5 ovarian): 2.11 µM
- TGI (OVCAR-5 ovarian): 4.18 µM
- GI50 (SK-OV-3 ovarian): 17.9 µM
- TGI (SK-OV-3 ovarian): 33.2 µM
- GI50 (HCT-116 colon): 2.08 µM
- TGI (HCT-116 colon): 4.11 µM
- GI50 (T-47D breast): 1.79 µM
- TGI (T-47D breast): 4.01 µM
- GI50 (HOP-62 NSCLC): 1.78 µM
- TGI (HOP-62 NSCLC): 3.68 µM
- GI50 (NCI-H226 lung): 23.6 µM
- TGI (NCI-H226 lung): 59.3 µM
- GI50 (MDA-MB-231 breast): 2.46 µM
- TGI (MDA-MB-231 breast): 5.42 µM
- GI50 (HS 578T breast): 16.6 µM
- TGI (HS 578T breast): 50 µM
- GI50 (NCI-H23 lung): 3.22 µM
- TGI (NCI-H23 lung): 9.89 µM

From PubChem BioAssay (NCI)
